What was measured:
[1] = system: AML-12 cells; assay: mPTP opening, CoCl2-calcein AM fluorescence-quenching assay, hypoxia/reoxygenation; assay type: cell-based, mouse; details: 1 μM; 4 h hypoxia, 1 h reoxygenation
Description: We next evaluated the ability of compounds C105SR and C110SR to inhibit mPTP opening in cells. The hepatocyte cell line AML-12 was subjected to 4 h of hypoxia followed by 1 h of reoxygenation and mPTP opening was monitored using the CoCl2-calcein-acetoxymethyl ester (AM) fluorescence-quenching method.[19] Calcein-AM is a membrane permeable fluorophore which passively diffuses in all subcellular compartments including mitochondria. In the cell, the AM group of the fluorophore is cleaved by ubiquitous intracellular esterases, generating a hydrophilic product that is retained within the cell. The cells are then loaded with the divalent cobalt cation (Co^2+), which quenches calcein fluorescence in all subcellular compartments except the mitochondrial matrix, because the inner mitochondrial membrane is impermeable to cobalt. However, when mPTP is open, cobalt enters mitochondria and quenches mitochondrial calcein fluorescence. […]
Hypoxia/reoxygenation (H/R) in vitro model. AML-12 mouse hepatocyte line was obtained from American Type Culture Collection (ATCC) and maintained in DMEM/F12 culture medium at 37°C with 5% CO2. HepaRG human hepatocyte line was obtained from American Type Culture Collection (ATCC) and maintained in William’S E culture medium at 37°C with 5% CO2.When indicated, cells were incubated in phosphate buffered saline at 37°C in a hypoxic chamber filled with 94% N2, 1% O2, 5% CO2 for 4 h to mimic ischemic conditions. Then, cells were transferred to a CO2 incubator at 37°C in regular DMEM/F12 culture medium for 1 or 2 h under normoxic conditions (74% N2, 21% O2, 5% CO2). SMCypIs or vehicle (DMSO) were added during the hypoxia period, during the reoxygenation period, or during both. CsA and ALV were used as positive controls for hepatic protection against H/R injury.
Monitoring of mPTP opening. mPTP opening was monitored in AML-12 cells using the CoCl2-calcein AM fluorescence-quenching assay. Cells were loaded with 1 µM calcein-AM (green) for 20 min. Then, 1 mM CoCl2 was added and cells were incubated for another 10 min. Cells were washed and subjected to 4 h of hypoxia followed by 1 h of reoxygenation. Calcein fluorescence was measured using a spectrofluorimeter at excitation and emission wavelengths of 485 nm and 535 nm, respectively. Images were acquired using a standard inverted fluorescence microscope (Zeiss Axio, […]
media during the entire H/R period. Images shown are representative images of 12-18 images. […]
Optical density of purple formazan product was measured at 550 nm. […]

[2] = system: AML-12 cells; assay: Propidium iodide staining, hypoxia/reoxygenation; assay type: cell-based, mouse; details: 1 μM; 4 h hypoxia, 1 h reoxygenation
Description: To assess whether the new SMCypIs reduced mPTP opening-induced cell death, propidium iodide fluorescence was measured in cells that had been co-loaded with calcein-AM. As expected, the loss of calcein fluorescence in cells subjected to hypoxia/reoxygenation was associated with enhanced propidium iodide fluorescence (Fig. 3A and 3C).
Calcium retention capacity (CRC) assay. Isolated liver mitochondria (1 mg/mL) energized with 5 mM glutamate/malate were incubated in a buffer allowing respiration of mitochondria (100 mM KCl, 50 mM sucrose, 10 mM HEPES, 5 mM KH2PO4, pH 7.4 at 30°C) supplemented with 1 µM calcium green 5N fluorescent probe. Mitochondria were pulsed with sequential additions of CaCl2 (20 µM) until mPTP opening along with rapid calcium release happened. The calcium concentration in the extra-mitochondrial medium was monitored with a Jasco FP-6300 spectrofluorimeter (Jasco, Bouguenais, France) at 506 nm excitation and 532 nm emission wavelengths.
Mitochondrial swelling assay. Mitochondrial swelling was assessed by measuring changes in absorbance at 540 nm using a Jasco V-530 spectrophotometer (Bouguenais, France) equipped with magnetic stirring and thermostatic control (30°C). […]
Monitoring of mPTP opening. mPTP opening was monitored in AML-12 cells using the CoCl2-calcein AM fluorescence-quenching assay. […] Calcein fluorescence was measured using a spectrofluorimeter at excitation and emission wavelengths of 485 nm and 535 nm, respectively. Images were acquired using a standard inverted fluorescence microscope (Zeiss Axio, […]
Propidium iodide staining. […] Fluorescence was measured using an Infinite 200 Pro fluorescent plate reader (Tecan, Mannedorf, Switzerland) at excitation and emission wavelengths of 533 nm and 617 nm, respectively. Images were acquired using a standard inverted fluorescence microscope (Zeiss Axio, Oberkochen, Germany). […]
Cell viability assays. Lactate dehydrogenase (LDH) release in culture medium was assessed using the commercially non-radioactive CytoTox-96 kit (Promega, Madison, Wisconsin) following the manufacturer’s instructions. […]

[3] = system: isolated mouse liver mitochondria; assay: Calcium retention capacity (CRC) assay in isolated liver mitochondria; assay type: biochemical
[4] = molecular target: CypD (Homo sapiens, UniProt P30405); assay: CypD PPIase activity, chymotrypsin-coupled assay; assay type: biochemical; details: Table 1
[5] = system: isolated mouse liver mitochondria; assay: Ca2+-induced mitochondrial swelling assay; assay type: biochemical; details: energised isolated mouse liver mitochondria

Sequence of CypD (P30405 30-207): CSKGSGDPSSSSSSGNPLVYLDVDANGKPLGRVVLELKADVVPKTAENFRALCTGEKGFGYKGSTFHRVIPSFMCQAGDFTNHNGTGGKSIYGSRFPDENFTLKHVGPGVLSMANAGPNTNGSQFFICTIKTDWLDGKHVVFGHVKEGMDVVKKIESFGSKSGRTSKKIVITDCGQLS

EC50 ([3]; isolated mouse liver mitochondria): 0.08 ± 0.02 µM
IC50 [4]: 0.03 ± 0.005 µM
IC50 [5]: 0.05 ± 0.02 µM
SMILES: C/C=C/C[C@@H](C)[C@@H](O)[C@H]1C(=O)N[C@@H](CC)C(=O)N(C)[C@H](C)C(=O)N(CC)[C@@H](C(C)C)C(=O)N[C@@H](C(C)C)C(=O)N(C)[C@@H](CC(C)C)C(=O)N[C@@H](C)C(=O)N[C@H](C)C(=O)N(C)[C@@H](CC(C)C)C(=O)N(C)[C@@H](CC(C)C)C(=O)N(C)[C@@H](C(C)C)C(=O)N1C [ALV, alisporivir, reference compound]
prevention of mPTP opening (loss of calcein fluorescence) [1]: substantially prevented
propidium iodide fluorescence [2]: low propidium iodide fluorescence
amount of Ca2+ required to open mPTP (CRC) ([3]; compound at 1 μM, basal 160 ± 8): 373 ± 59 nmol Ca2+/mg of mitochondrial
